The experiment addresses T1, histamine 3 receptor (H3R) (Homo sapiens, UniProt Q9Y5N1).
T1 construct: expressed in transfected cells; host or cells: CHO cells (HR3-CHO cell line), membranes
Description: Binding assay with 3H-(R)α-Methylhistamine (competition binding, membranes of the human HR3-CHO cell line). The following applies: competition against 3H(R)α-Methylhistamine (1 nM), Ki calculated from IC50 by Cheng-Prusoff. Here is the method:
Binding Assay with ^3H—(R)α-Methylhistamine
Saturation binding experiments were performed using HR3-CHO membranes prepared as described in Takahashi, K, Tokita, S., Kotani, H. (2003) J. Pharmacol. Exp. Therapeutics 307, 213-218.
An appropriate amount of membrane (60 to 80 μg protein/well) was incubated with increasing concentrations of ^3H(R)α-Methylhistamine di-hydrochloride (0.10 to 10 nM). Non specific binding was determined using a 200 fold excess of cold (R)α-Methylhistamine dihydrobromide (500 nM final concentration). The incubation was carried out at room temperature (in deep-well plates shaking for three hours). The final volume in each well was 250 μl. The incubation was followed by rapid filtration on GF/B filters (pre-soaked with 100 μl of 0.5% PEI in Tris 50 mM shaking at 200 rpm for two hours). The filtration was made using a cell-harvester and the filter plates were then washed five times with ice cold washing buffer containing 0.5 M NaCl. After harvesting, the plates were dried at 55° C. for 60 min, then we added scintillation fluid (Microscint 40, 40 microl in each well) and the amount of radioactivity on the filter was determined in Packard top-counter after shaking the plates for two hours at 200 rpm at room temperature.
Binding Buffer: 50 mM Tris-HCl pH 7.4 and 5 mM MgCl2x 6H2O pH 7.4. Washing Buffer: 50 mM Tris-HCl pH 7.4 and 5 mM MgCl2x6H2O and 0.5 M NaCl pH 7.4.
Indirect measurement of affinity of H3R inverse agonists: twelve increasing concentrations (ranging from 10 μM to 0.3 nM) of the selected compounds were always tested in competition binding experiments using membrane of the human HR3-CHO cell line. An appropriate amount of protein, e.g. approximately 500 cpm binding of RAMH at Kd, were incubated for 1 hour at room temperature in 250 μl final volume in 96-well plates in presence of ^3H(R)α-Methylhistamine (1 nM final concentration=Kd). […]
All compounds were tested at a single concentration in duplicates. […] Ki's were calculated from IC50 based on Cheng-Prusoff equation (Cheng, Y, Prusoff, WH (1973) Biochem Pharmacol 22, 3099-3108).
T1 sequence (Q9Y5N1 whole entry): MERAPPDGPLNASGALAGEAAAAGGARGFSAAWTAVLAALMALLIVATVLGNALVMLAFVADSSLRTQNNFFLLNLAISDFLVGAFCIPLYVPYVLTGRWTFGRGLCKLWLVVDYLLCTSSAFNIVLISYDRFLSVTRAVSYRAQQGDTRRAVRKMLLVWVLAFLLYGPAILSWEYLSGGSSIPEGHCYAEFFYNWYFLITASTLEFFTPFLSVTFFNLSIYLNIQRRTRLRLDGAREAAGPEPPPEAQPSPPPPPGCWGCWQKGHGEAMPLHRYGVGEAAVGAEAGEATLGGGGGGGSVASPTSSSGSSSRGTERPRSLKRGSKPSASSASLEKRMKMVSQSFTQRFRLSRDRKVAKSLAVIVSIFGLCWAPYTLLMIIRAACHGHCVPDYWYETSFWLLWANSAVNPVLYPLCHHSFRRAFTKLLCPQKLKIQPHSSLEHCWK
As to `O=C(c1cc2ccc(N3CCN(C4CCCC4)CC3)nc2[nH]1)N1CCC(O)C1` (stereo not drawn) [Example 8, [6-(4-cyclopentyl-piperazin-1-yl)-1H-pyrrolo[2,3-b]pyridin-2-yl]-(3-hydroxy-pyrrolidin-1-yl)-methanone], the Ki was 83.1 nM.

In the case of `O=C(c1cc2ccc(N3CCN(C4CCCC4)CC3)nc2[nH]1)N1CCCCC1` [Example 1, [6-(4-Cyclopentyl-piperazin-1-yl)-1H-pyrrolo[2,3-b]pyridin-2-yl]-piperidin-1-yl-methanone], the Ki was 48.4 nM.

Take `O=C(NC1CCCCC1)c1cc2ccc(N3CCN(C4CCCC4)CC3)nc2[nH]1` [Example 4, 6-(4-cyclopentyl-piperazin-1-yl)-1H-pyrrolo[2,3-b]pyridine-2-carboxylic acid cyclohexylamide]: the Ki was 22.7 nM.

One may read the Ki as a measure of affinity in units of concentration, obtained from inhibition or displacement.

(Values after US7351708B2, “Pyrrolo [2,3-b] pyridine derivatives” (Hoffmann-La Roche Inc., priority 2005, dated 2008).)
